Experimental findings from BindingDB's records for doi:10.1016/j.bmc.2019.115091 (Kyowa Kirin, 2019) are described below.

The nature of this assay: Inhibition of chemR23 expressed in human CAL1 cells assessed as reduction in chemerin-induced chemotaxis incubated for 4 hrs by cell counting based CellTiter-Glo assay.

Each structure is given as a SMILES string.

What is called IC50 is the concentration that inhibits the measured activity by half.

In the case of `CCCCN(c1nc2cc(C(=O)NC)ccc2o1)[C@H](C)c1ccc(-c2ccccc2-c2nnn[nH]2)cc1`, the IC50 came out at 0.38 µM.
